Data as given in US20240041042A1, “1-(PYRIDYL)-5-AZINYLPYRAZOLE DERIVATIVES, AND THEIR USE FOR CONTROL OF UNDESIRED PLANT GROWTH” (Bayer Aktiengesellschaft, priority 2020, published 2024).

Assays:
Type in all cases: in vivo
[1] = system: Viola tricolor (VIOTR); test: Post-emergence herbicidal action against VIOTR
Method in brief: (§1)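 Doses of 320 g/ha or lower, suffixes a, b and c marking different dosages, were applied post-emergence at the one-leaf stage in 600 l/ha water with 0.5% additive. Damage was assessed visually after about 3 weeks in the greenhouse.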

[2] = system: Amaranthus retroflexus (AMARE); test: Post-emergence herbicidal action against AMARE
Method in brief: as §1

[3] = system: Alopecurus myosuroides (ALOMY); test: Pre-emergence herbicidal action against ALOMY; settings: scored visually after about 3 weeks, 100% = plants have died
Method in brief: (§2)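 Herbicide applied to soil before seedling emergence, at 600 l/ha spray volume with 0.5% additive and rates up to 320 g/ha. Evaluation: visual percentage effect, about 3 weeks later, greenhouse-grown pots compared with untreated ones.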

[4] = system: Matricaria inodora (MATIN); test: Post-emergence herbicidal action against MATIN
Method in brief: as §1

[5] = system: Setaria viridis (SETVI); test: Post-emergence herbicidal action against SETVI
Method in brief: as §1

[6] = system: Verconica persica (VERPE); test: Post-emergence herbicidal action against VERPE
Method in brief: as §1

[7] = system: Verconica persica (VERPE); test: Pre-emergence herbicidal action against VERPE
Method in brief: as §2

[8] = system: Avena fatua (AVEFA); test: Pre-emergence herbicidal action against AVEFA; settings: visual scoring after about 3 weeks vs untreated controls
Method in brief: as §2

[9] = system: Polygonum convolvulus (POLCO); test: Pre-emergence herbicidal action against POLCO
Method in brief: as §2

[10] = system: Abutilon theophrasti (ABUTH); test: Post-emergence herbicidal action against ABUTH; settings: visual rating about 3 weeks after treatment vs untreated controls (100% = plants have died, 0% = like control plants)
Method in brief: as §1

[11] = 80 g/ha, visual rating about 3 weeks after treatment vs untreated controls (100% = plants have died, 0% = like control plants)
[12] = 320 g/ha, visual rating about 3 weeks after treatment

Compound | Post-emergence action against VIOTR in % ([1]; 80 g/ha) [%] | Post-emergence action against VIOTR in % ([1]; 320 g/ha) [%] | Post-emergence action against AMARE in % [2, 11] [%] | Post-emergence action against AMARE in % [2, 12] [%] | Pre-emergence action against ALOMY ([3]; 80 g/ha) [%] | Pre-emergence action against ALOMY ([3]; 320 g/ha) [%] | Post-emergence action against MATIN in % ([4]; dosage 320 g/ha) [%] | Post-emergence action against SETVI in % ([5]; dosage 80 g/ha) [%] | Post-emergence action against SETVI in % ([5]; dosage 320 g/ha) [%] | Post-emergence action against VERPE in % ([6]; 320 g/ha, VERPE) [%] | Post-emergence action against VERPE in % ([6]; dosage 80 g/ha) [%] | Pre-emergence action against VERPE in % ([7]; dosage 80 g/ha) [%] | Pre-emergence action against VERPE in % ([7]; dosage 320 g/ha) [%] | Pre-emergence action against AVEFA in % ([8]; 80 g/ha) [%] | Pre-emergence action against AVEFA in % ([8]; 320 g/ha) [%] | Pre-emergence action against POLCO in % ([9]; dosage 80 g/ha) [%] | Pre-emergence action against POLCO in % ([9]; dosage 320 g/ha) [%] | Post-emergence action against ABUTH in % ([10]; 320 g/ha) [%] | Post-emergence action against MATIN in % ([4]; dosage 80 g/ha) [%] | Post-emergence action against ABUTH in % ([10]; 80 g/ha) [%]
COC(=O)[C@@H](C)Oc1nn(-c2ncccc2F)c(-c2ccc(F)nc2)c1C1CC1 [Example I-307] | 80 | 90 | 80 | 90 | 80 | 90 | 80 | 90 | 90 | 90 | 90 | 90 | 100 | 90 | 100 | 90 | 100 | 90 | – | –
O=C(O)COc1nn(-c2ncccc2F)c(-c2ccc(F)nc2)c1Br [Example I-08] | 80 | 80 | 80 | 90 | 100 | 100 | 90 | 80 | 90 | 90 | 90 | – | 100 | 80 | 90 | 80 | 100 | 90 | 90 | 80
COC(=O)[C@H](C)COC(=O)COc1nn(-c2ccccn2)c(-c2cncc(F)c2)c1Cl [Example I-192] | – | 80 | 80 | 80 | 90 | 90 | 80 | 80 | 80 | 80 | 80 | – | 90 | – | 90 | 90 | 100 | 80 | – | –
COC(=O)C(C)COC(=O)[C@@H](C)Oc1nn(-c2ccccn2)c(-c2cncc(F)c2)c1Br (some centres unmarked) [Example I-188] | 80 | 80 | – | 80 | 90 | 100 | 80 | 80 | 80 | 90 | 80 | 100 | 100 | 80 | 90 | 90 | 90 | 80 | – | 80
CCOC(=O)COc1nn(-c2nc(F)ccc2F)c(-c2cncc(F)c2)c1Br [Example I-193] | 80 | 90 | 80 | 80 | – | 90 | 80 | – | 90 | 80 | 80 | 80 | 90 | – | 90 | 80 | 100 | 80 | – | 80
CCOC(=O)[C@@H](C)Oc1nn(-c2ncccc2F)c(-c2ccc(F)nc2)c1C1CC1 [Example I-375] | 80 | 90 | 80 | 80 | 80 | 90 | 80 | 90 | 90 | 90 | 80 | 100 | 100 | 90 | 100 | 90 | 90 | 90 | – | 90
C[C@@H](Oc1nn(-c2ncccc2F)c(-c2ccc(F)nc2)c1I)C(=O)O [Example I-343] | 80 | 80 | 80 | 80 | 90 | 90 | 80 | 90 | 90 | 80 | 80 | – | 100 | 80 | 90 | 90 | 100 | 90 | – | 80
COC(=O)[C@@H](C)Oc1nn(-c2nc(F)ccc2F)c(-c2cncc(F)c2)c1C1CC1 [Example I-171] | 90 | 90 | 80 | 80 | 100 | 100 | 90 | 90 | 90 | 90 | 80 | 100 | 100 | 90 | 100 | 90 | 90 | 90 | 80 | –
CCOC(=O)COc1nn(-c2ccccn2)c(-c2ccc(F)nc2)c1Br [Example I-02] | – | 80 | 80 | 80 | 100 | 90 | 80 | 80 | 80 | 80 | 80 | – | 90 | 90 | 100 | 80 | 80 | 80 | 80 | 80
COCCOC(=O)COc1nn(-c2ncccc2C)c(-c2cncc(F)c2)c1Br [Example I-212] | 80 | 80 | – | 80 | 100 | 100 | 80 | 80 | 80 | 80 | 80 | 80 | 100 | 80 | 90 | 90 | 90 | 80 | – | 80
COC(=O)[C@@H](C)Oc1nn(-c2ncccc2F)c(-c2ccc(F)nc2)c1C(F)(F)F [Example I-331] | 80 | 80 | 80 | 80 | 100 | 100 | 80 | 90 | 90 | 90 | 90 | 100 | 100 | 100 | 100 | 100 | 100 | 90 | 80 | 90
O=C(O)COc1nn(-c2ccccn2)c(-c2cncnc2)c1Br [Example I-66] | 80 | 90 | 80 | 90 | 100 | 100 | 90 | 80 | 90 | 90 | 90 | – | 100 | – | 90 | 90 | 90 | 80 | 80 | –
